Experimental data reported in patent publication US7812042B2, “Pharmaceutical compositions and therapeutic applications for the use of a novel vitamin B12 derivative, N-acetyl-L-cysteinylcobalamin” (priority 2006, dated 2010).
Several values for one entry are separate records, joined by “and”; a condition that tells them apart may be missing. Equal entries are not always repeated.

Legend:
SK-HEP-1 cells [1] = assay: Protection of endothelial cells from homocysteine-induced cell death (MTS assay, absorbance at 490 nm; includes comparison of NACCbl, NAC, cyanocobalamin+NAC, free thiols, other cobalamins, folate); format: cell-based, Human; conditions: for Absorbance at 490 nm (n = 6): replicates Y1-Y6
Method: The effect of a constant concentration of NACCbl and GSCbl to protect cells against variable concentrations of homocysteine was assessed. […] Cell viability was determined by MTS® assay. Data shown in FIG. 4 are representative of means ±SE of 6 independent samples. FIG. 4 illustrates that NACCbl (▪) and GSCbl (▴) protect endothelial cells from the effect of homocysteine. […] Cell viability was determined by MTS® assay. […] There was a decrease in protection as homocysteine concentration increased, but there was still ˜60% survival at 50 μM homocysteine.
The data was normalized (log 2 and log 10) as shown in FIGS. 16 and 17 and Tables 16 and 17, respectively, below.

U937 (monocytes) = assay: Survival of U937 cells at variable concentration of Hcy; format: cell-based; conditions: NACCbl 30 μM, NAC 75 μM, CNCbl 15 μM, folate 30 μM; especially at higher homocysteine concentrations
Method: Additional cell studies were conducted using Jurkat (T-cells) and U937 (monocyte) cell lines. These experiments confirmed that other cell types are killed by homocysteine, although these cell lines are not as sensitive as the SK-HEP-1 cell line discussed in the experiments above and are thus more resistant to homocysteine. Cells were exposed to NACCbl 30 μM, NAC 75 μM, CNCbl 15 μM, and folate 30 μM. […] In these Figures, the monocytes are N=6 and concentrations are as follows: NACCbl 30 μM, NAC 75 μM, CNCbl 15 μM, Folate 30 μM

[2] = Decomposition of thiolatocobalamins in PBS at 37° C. monitored by UV/Vis spectrophotometry; format: physicochemical; conditions: decomposition in PBS at 37° C.
Method: The decomposition of GSCbl, NACCbl, and HcyCbl in PBS at 37° C. was monitored by UV/Vis spectrophotometry.

SK-HEP-1 cells [3] = assay: Protection from apoptosis induced by homocysteine (Caspase-3 activity); format: cell-based, Human; conditions: 30 μM pre-treatment two hours, then 30 μM homocysteine two hours
Method: Caspase 3 is activated when cells undergo apoptosis. Caspase-3 assay is a standard for apoptosis assay. Homocysteine is a known inducer of apoptosis. Cells were cultured in 96-well plates for 24 hours and then treated with reagents under test conditions. Cytotoxic agents, H2O2 and etoposide were added to negative control wells. The assay was performed according to the manufacturer's protocol, as follows: Cells were re-suspended in 100 μl of clear media and 50 μl of Caspase-3 substrate solution was immediately added to each test well. […] Cell viability was determined by MTS® assay. […] Cell viability was determined by MTS® assay.

SK-HEP-1 cells [4] = assay: Protection of endothelial cells from H2O2-induced cell death (MTS assay); format: cell-based, Human
Method: The effect of increasing concentrations of NACCbl and GSCbl to protect endothelial cells from the effect of H2O2 was assessed. […] Cell viability was determined by MTS® assay. […] Cell viability was determined by MTS® assay. […] Cell viability was determined by MTS® assay.

Hsp32 = Hsp32 gene expression in SK-HEP-1 cells (RT-PCR, densitometry); format: cell-based, Human; conditions: homocysteine 30 μM, folate 30 μM (2 hr), Sn(IX) protoporphyrin 25 μM, quercitin 15 μM
Method: Cells were plated into 6-, 12-, or 24-well cell culture clusters, at 2×10^3, 2×10^5, or 1×10^5 cells per well and incubated until 90% confluent. Treatments were applied as above.
Following incubation, cells were subjected to mRNA extraction followed by cDNA synthesis for each sample under test. Polymerase chain reaction cDNA templates were prepared for simplex PCR protocol. PCR products were then visualized using a UV Transilluminator and images captured using a Kodak ID gel imaging system. Densitometry and statistical analysis was then performed on each gene expression band image using PSP® v 10.0 running under Windows XP®.
mRNA extraction was performed using the Quickprep micro mRNA Purification Kit. Following incubation of cells post-treatment, the media was removed from the cells, adherent cells were re-suspended in 0.4 ml extraction buffer and 0.8 ml elution buffer at 65° C. was added.
A reaction mixture was prepared in individual microcentrifuge tubes containing 2 cDNA synthesis beads, 32 μl of the mRNA solution and 1 μl of pd(N)6. This mixture was incubated at 37° C. in a water bath for 60 minutes. After incubation, 27 μl of RNase-free DEPC treated water was added to each tube to make a total volume 60 μl. cDNA samples were prepared in duplicate. Sample 1 was used immediately in RT-PCR protocol. Sample 2 was prepared for qPCR protocol by the addition of 150 μl of 95% ice-cold ethanol and stored at −20° C.
Microcentrifuge tubes from puReTaq™Ready-To-Go™ PCR Beads containing one PCR bead were labeled for each sample required. Added to the PCR bead were 17 μl of RNase-free DEPC treated water, 1 μl sense primer, 1 μl anti-sense primer and 5 μl of the cDNA solution. RT-PCR conditions were as follows: Hsp70 and β-actin, pre-treatment step, 94° C. for 1 minute, followed by denaturing at 92° C. for 1 minute, annealing at 60° C. for 1 minute and extension at 72° C. for 1 minute. Total cycles, 30, post-treatment was then carried out at 72° C. for 10 minutes. For Hsp32, pre-treatment step, 95° C. for 2 minutes, followed by denaturing at 94° C. for 30 seconds, annealing at 58° C. for 1 minute and extension at 72° C. for 1 minute. Total cycles 45, post treatment was then carried out at 72° C. for 10 minutes. Following RT-PCR, samples were stored at −20° C.
Amplification products were separated on a 1.8% agarose gel (m/v) in TAE buffer. The size of the PCR products was determined by comparison to DNA fragments of a well-defined size; therefore, 5 μl of the DNA Ladder was carefully pipetted into the first well of the gel. Successive 10 μl of each PCR sample was then pipetted into subsequent wells on the agarose gel. The gel was connected to the Power Pack and run at 100V for 30 minutes.
Gels were visualised on a UV Transilluminator. Photographs were stored using a Kodak Digital camera system fitted with a UV filter set connected to a PC. Images were then transferred to the Kodak ID gel imaging system. Densitometry was performed on each gene expression band using PSP™ v10 running under Windows XP®.
Experiments were conducted using Hsp32 and Hsp 70 gene expression as the basis for study. […] (all treatments for 2 hours).

[5] = 2 hours pre-incubation, then 25 μM H2O2 24 hours

## CC(=O)NC(C[S-])C(=O)O.CC1=C2N=C(C=C3N=C(C(C)=C4[N-]C(C(CC(N)=O)C4(C)CCC(=O)NCC(C)OP(=O)([O-])OC4C(CO)OC(n5cnc6cc(C)c(C)cc65)C4O)C4(C)N=C1C(CCC(N)=O)C4(C)CC(N)=O)C(CCC(N)=O)C3(C)C)C(CCC(N)=O)C2(C)CC(N)=O.[Co+3] [NACCbl, N-acetyl-L-cysteinylcobalamin]
SK-HEP-1 cells [1]; Conc. Hcy 0.000, NACCbl 30 μM, NAC 75 μM
  Absorbance at 490 nm, Mean (n = 6): 2.761
SK-HEP-1 cells [1]; Conc. Hcy 1.780 (μM), NACCbl 30 μM, NAC 75 μM
  Absorbance at 490 nm, Mean (n = 6): 2.673
SK-HEP-1 cells [1]; Conc. Hcy 3.125 (μM), NACCbl 30 μM, NAC 75 μM
  Absorbance at 490 nm, Mean (n = 6): 2.404
SK-HEP-1 cells [1]; Conc. Hcy 6.250 (μM), NACCbl 30 μM, NAC 75 μM
  Absorbance at 490 nm, Mean (n = 6): 2.273
SK-HEP-1 cells [1]; Conc. Hcy 12.500 (μM), NACCbl 30 μM, NAC 75 μM
  Absorbance at 490 nm, Mean (n = 6): 2.142
SK-HEP-1 cells [1]; Conc. Hcy 25.000 (μM), NACCbl 30 μM, NAC 75 μM
  Absorbance at 490 nm, Mean (n = 6): 1.954
SK-HEP-1 cells [1]; Conc. Hcy 50.000 (μM), NACCbl 30 μM, NAC 75 μM
  Absorbance at 490 nm, Mean (n = 6): 1.786
SK-HEP-1 cells [1]; Conc. Hcy 100.000 (μM), NACCbl 30 μM, NAC 75 μM
  Absorbance at 490 nm, Mean (n = 6): 1.685
SK-HEP-1 cells [1]; Conc. Hcy 200.000 (μM), NACCbl 30 μM, NAC 75 μM
  Absorbance at 490 nm, Mean (n = 6): 1.393
SK-HEP-1 cells [1]; Conc. of Hcy 0.000, NACCbl 30 μM, NAC 75 μM
  Absorbance at 490 nm (n = 6): 2.885 and 2.698 and 2.821 and 2.771 and 2.691 and 2.700
SK-HEP-1 cells [1]; Conc. of Hcy 1.780, NACCbl 30 μM, NAC 75 μM
  Absorbance at 490 nm (n = 6): 2.647 and 2.551 and 2.789 and 2.890 and 2.549 and 2.611
SK-HEP-1 cells [1]; Conc. of Hcy 3.125, NACCbl 30 μM
  Absorbance at 490 nm (n = 6): 2.453 and 2.338 and 2.360 and 2.317 and 2.418 and 2.535
SK-HEP-1 cells [1]; Conc. of Hcy 6.250, NACCbl 30 μM, NAC 75 μM
  Absorbance at 490 nm (n = 6): 2.410 and 2.400 and 2.322 and 2.201 and 2.115 and 2.187
SK-HEP-1 cells [1]; Conc. of Hcy 12.500, NACCbl 30 μM, NAC 75 μM
  Absorbance at 490 nm (n = 6): 2.210 and 2.110 and 2.045 and 2.065 and 2.101 and 2.324
SK-HEP-1 cells [1]; Conc. of Hcy 25.000, NACCbl 30 μM, NAC 75 μM
  Absorbance at 490 nm (n = 6): 2.100 and 2.190 and 1.879 and 1.937 and 1.779 and 1.837
SK-HEP-1 cells [1]; Conc. of Hcy 50.000, NACCbl 30 μM, NAC 75 μM
  Absorbance at 490 nm (n = 6): 1.678 and 1.832 and 1.881 and 1.730 and 1.740 and 1.855
SK-HEP-1 cells [1]; Conc. of Hcy 100.000, NACCbl 30 μM, NAC 75 μM
  Absorbance at 490 nm (n = 6): 1.678 and 1.592 and 1.694 and 1.773 and 1.732 and 1.639
SK-HEP-1 cells [1]; Conc. of Hcy 200.000, NACCbl 30 μM, NAC 75 μM
  Absorbance at 490 nm (n = 6): 1.378 and 1.167 and 1.330 and 1.456 and 1.491 and 1.537
SK-HEP-1 cells [1]; Hcy 30 μM, NAC 45, GSH 100, NACCbl 12.5, GSCbl 15 μM, with or without folate 25 μM
  protection against homocysteine-induced damage compared with free thiols: superior to the free thiols
SK-HEP-1 cells [1]; concentrations below 12.5 μM, 30 μM homocysteine 24 hours
  protection compared with GSCbl (p<0.001): significantly greater than that provided by GSCbl
SK-HEP-1 cells [1]; variable Hcy concentration, NACCbl 30 μM
  prevention of cell death compared with NAC and cyanocobalamin+NAC: superior to either NAC (75 μM) alone or in combination with CNCbl
SK-HEP-1 cells [1]; ≧12.5 μM NACCbl 2 hours, then 30 μM homocysteine 24 hours
  survival: 80%
U937 (monocytes)
  protection of U937 cells from death by homocysteine, comparison: more effective at protecting these cells from death than NAC, CN Cbl or folate
[2]
  t1/2: No decomposition within 20 hours
SK-HEP-1 cells [3]
  protection against apoptosis induced by homocysteine: total protection
SK-HEP-1 cells [4]; 25 μM H2O2 24 hours
  protection by NACCbl compared with GSCbl: no difference
SK-HEP-1 cells [4]; [5]
  concentration required to achieve >80% survival: 100 µM
  pre-incubation concentration that protected cells from H2O2-induced cell death: ≥ 2.0 µM
Hsp32
  effect on Hsp32 gene expression: induce Hsp32
